Here are results for 4 molecules from US20120230974A1, “ALKALINE ALPHA GALACTOSIDASE FOR THE TREATMENT OF FABRY DISEASE” (PROTALIX LTD, priority 2009, published 2012).

A short description of data set [1]: Biodistribution of fluorescent Gb3 in WT and Fabry mice. In kind it is in vivo. An excerpt:
For testing the hypothesis that circulating Gb3 can reach and accumulate in organs, organ uptake and biodistribution of fluorescent Gb3 (N-Dodecanoyl-NBD-ceramide trihexoside) in wild type (WT) and Fabry mice were effected.
Animals: Mice: Fabry mice and WT mice
Group Size: total 12 male mice, n=2
Materials: fluorescent Gb3 (N-Dodecanoyl-NBD-ceramide trihexoside; Catalog #: 1631, Matreya Pa. 16823 USA
Jackson B6J129Gla α-galactosidase-A-deficient mice (“Fabry mice”) were purchased from Jackson Laboratories. These mice are characterized by being totally deficient in α-Galactosidase-A activity and progressively accumulate Gb3 in both plasma and in the lysosomes of most tissues (in particular, the liver, spleen, heart, skin, and kidneys). In addition, these mice have no clinical disease phenotype and survive a normal laboratory life span (>2 years). Hemizygous affected males were bred to homozygous affected females, thereby providing only affected offspring. For these studies, all mice were affected adult males 12 to 30 weeks of age at study initiation.
Administration: IV injection, tail vein.
Gb3-NBD was injected to wild type and Fabry mice. Blood was collected 1 hour and 24 hours following injection and plasma was prepared using accepted methods. Gb3-NBD levels were determined using Fluorescent Elisa reader (Infinite M200; Tecan, Switzerland), subtracting basal fluorescent levels plasma of control mice injected with saline.
Gb3 presence was also detected with HP TLC (CAMAG, Switzerland)
Organs (liver, kidney heart and spleen) were collected from the mice of the experiment described above, and Gb3-NBD levels were determined by fluorescence detector and HPTLC as described. As the experiment was initial, low levels of Injected Gb3 NBD were given.

Data set [2] is described as follows: In vitro hydrolysis of Gb3-NBD by alpha galactosidases from different sources under various pH conditions (TLC). In kind it is biochemical. To be noted: phosphate buffer pH 6.5, 60 min 37° C., a-Gal 50 ug/ml. The procedure:
Green Coffee Bean-GCB a-Gal (Sigma #G8507)
Plant recombinant human alpha galactosidase was produced as described in WO2008/132743 (alpha-Gal-KDEL).
Commercial recombinant human alpha galactosidase (Replagal, Shire)
The following protocol was used for NBD-Gb3 hydrolysis:
90 μl activity buffer [citrate phosphate pH=4.6; phosphate buffer pH=6.5
10 μl of NBD-Gb3 0.35 ug/ul in Ethanol [35 ug/ml in reaction]
5 μl of a-Gal 1 mg/ml [50 ug/ml in reaction]
Incubation for 60 min in 37° C.
100 μl chloroform were added followed by vortex
50 μl methanol were added followed by vortex
Injection on TLC silica-60 plate, Chloroform: methanol: H2O [100:42:6] as mobile phase.

Data set [3] is described as follows: Activity assay with NBD-Gb3 in PBS pH 7.4 (HP-TLC). In kind it is biochemical. The procedure: a-Gals: prh-alpha galactosidase, GCB a-Gal (endogenous green coffee bean).
80 μl PBS (sigma), pH=7.4
10 μl of NBD-Gb3 0.1 μg/ul in Ethanol [10 ug/ml in reaction]
10 μl of a-Gal 1 mg/ml [100 μg/ml in reaction]
Incubated for 60 min in 37° C.
150 μl chloroform: methanol (2:1) were added followed by vortex the lower phase pulled out speed-vac was effected to complete evaporation and the pellet dissolved in 50 μl Chloroform: methanol [1:1] All samples were injected on HP-TLC silica-60 plate [40 ul ]
Chloroform: methanol: H2O [100:42:6].

The conditions of data set [4]: clinical studies; cited from earlier work.

For “N-Dodecanoyl-NBD-ceramide trihexoside [Gb3-NBD]”, the “Gb3-NBD levels in plasma (fluorescence)” value in data set [1] (24 hours following iv injection, 320 ug/kg, WT and Fabry mice) is “fluorescence only in Fabry mice”. Besides, the “Gb3-NBD fluorescent levels in plasma and organs (liver, kidney, heart, spleen)” value in data set [1] (iv 320 ug/kg, fluorescence detector) was “only detectable in Plasma (FIG. 5) and Liver”. The “Gb3-NBD bands in organs by HPTLC” value in data set [1] (iv 320 ug/kg, inconclusive due to high background) was “only in Fabry mice”.
On to “Green coffee bean alpha gal: Endogenous green coffee bean alpha galactosidase (Sigma #G8507)”, for which the “Hydrolysis of Gb3-NBD to lactosylceramide-NBD” value in data set [2] is listed as “can hydrolyze NBD-Gb3”. Further, in data set [3] (PBS pH 7.4), the “Activity compared with plant recombinant human alpha Gal (upshift of band)” value is “works better”. Moreover, in data set [3] (PBS pH 7.4, 60 min 37° C., a-Gal 100 μg/ml, HP-TLC), the “Enzymatic activity on NBD-Gb3 under neutral to basic pH” value is recorded as “demonstrate enzymatic activity”. For the same molecule, the “Activity under alkaline pH compared with the acidic conditions of FIG. 3” value in data set [3] (pH 7.4 vs acidic conditions of FIG. 3) was “more active under alkaline pH conditions”.

B1: Replagal: Commercial recombinant human alpha galactosidase (Replagal, Shire) (protein, UniProt P06280 32-429, looked up)
Alpha-galactosidase A: LDNGLARTPTMGWLHWERFMCNLDCQEEPDSCISEKLFMEMAELMVSEGWKDAGYEYLCIDDCWMAPQRDSEGRLQADPQRFPHGIRQLANYVHSKGLKLGIYADVGNKTCAGFPGSFGYYDIDAQTFADWGVDLLKFDGCYCDSLENLADGYKHMSLALNRTGRSIVYSCEWPLYMWPFQKPNYTEIRQYCNHWRNFADIDDSWKSIKSILDWTSFNQERIVDVAGPGGWNDPDMLVIGNFGLSWNQQVTQMALWAIMAAPLFMSNDLRHISPQAKALLQDKDVIAINQDPLGKQGYQLRQGDNFEVWERPLSGLAWAVAMINRQEIGGPRSYTIAVASLGKGVACNPACFITQLLPVKRKLGFYEWTSRLRSHINPTGTVLLQLENTMQMSLKDLL
modifications: agalsidase alfa
For the molecule B1, the “Clearance of Gb3 from plasma, kidney cells, capillary endothelial cells of heart and skin” value in data set [4] is on record as “proven efficacious”. Besides, the “Hydrolysis of Gb3-NBD to lactosylceramide-NBD” value in data set [2] is “can partially hydrolyze Gb3”.

B2: Fabrazyme: Recombinant form of human α-galactosidase A (agalsidase beta, Genzyme) (protein, UniProt P06280 32-429, looked up)
Alpha-galactosidase A: LDNGLARTPTMGWLHWERFMCNLDCQEEPDSCISEKLFMEMAELMVSEGWKDAGYEYLCIDDCWMAPQRDSEGRLQADPQRFPHGIRQLANYVHSKGLKLGIYADVGNKTCAGFPGSFGYYDIDAQTFADWGVDLLKFDGCYCDSLENLADGYKHMSLALNRTGRSIVYSCEWPLYMWPFQKPNYTEIRQYCNHWRNFADIDDSWKSIKSILDWTSFNQERIVDVAGPGGWNDPDMLVIGNFGLSWNQQVTQMALWAIMAAPLFMSNDLRHISPQAKALLQDKDVIAINQDPLGKQGYQLRQGDNFEVWERPLSGLAWAVAMINRQEIGGPRSYTIAVASLGKGVACNPACFITQLLPVKRKLGFYEWTSRLRSHINPTGTVLLQLENTMQMSLKDLL
modifications: agalsidase beta
Consider B2, for which, in data set [4], the “Clearance of Gb3 from plasma, kidney cells, capillary endothelial cells of heart and skin” value was “proven efficacious”.
